Active and inactive are the calls of the source. The rule behind the calls is not given here.
Each molecule was assayed against Mu-type opioid receptor (Homo sapiens) + Delta-type opioid receptor (Homo sapiens) (UniProt P35372+P41143) (assay: OPRM1-OPRD1 heterodimer agonist potency – cell-based, luminescence, counter-screen for MC4R biased agonist project, dose response (AID 602264)). Conditions: cell-based OPRM1-OPRD1 heterodimerization.
Chain of Mu-type opioid receptor (Homo sapiens) + Delta-type opioid receptor (Homo sapiens) (P35372 whole entry, looked up): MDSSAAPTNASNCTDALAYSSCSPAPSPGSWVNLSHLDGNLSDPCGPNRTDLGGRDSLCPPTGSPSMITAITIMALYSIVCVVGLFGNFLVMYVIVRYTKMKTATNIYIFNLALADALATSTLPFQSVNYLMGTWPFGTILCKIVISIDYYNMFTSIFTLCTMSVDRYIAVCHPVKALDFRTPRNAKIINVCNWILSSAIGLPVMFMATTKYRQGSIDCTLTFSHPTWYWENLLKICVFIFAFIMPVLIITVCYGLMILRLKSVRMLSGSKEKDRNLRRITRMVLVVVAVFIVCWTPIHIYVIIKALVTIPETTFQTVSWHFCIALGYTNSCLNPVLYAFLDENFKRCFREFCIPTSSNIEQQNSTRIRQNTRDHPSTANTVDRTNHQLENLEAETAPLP
Chain of Mu-type opioid receptor (Homo sapiens) + Delta-type opioid receptor (Homo sapiens) (P41143 whole entry, looked up): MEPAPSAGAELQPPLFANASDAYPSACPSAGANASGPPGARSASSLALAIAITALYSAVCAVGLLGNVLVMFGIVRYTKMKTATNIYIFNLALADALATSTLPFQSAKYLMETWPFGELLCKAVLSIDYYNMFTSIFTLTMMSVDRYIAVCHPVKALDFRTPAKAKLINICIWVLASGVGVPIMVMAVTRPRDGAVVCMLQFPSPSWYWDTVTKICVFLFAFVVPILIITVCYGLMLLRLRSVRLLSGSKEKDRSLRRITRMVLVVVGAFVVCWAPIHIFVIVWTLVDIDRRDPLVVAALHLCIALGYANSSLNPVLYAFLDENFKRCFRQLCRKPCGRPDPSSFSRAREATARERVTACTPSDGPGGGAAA

Compound | EC50
CCCCCCCCCCCCCCCC[n+]1ccc(/C=N/O)cc1 | > 64.6 µM (inactive)
O=C(N=Nc1c(O)n(Cc2ccccc2)c2ccccc12)c1cc2ccccc2cc1O | > 92.5 µM (inactive)
CC(=O)Nc1cc(-c2ccc(C(=O)NC3CC3)cc2)cn2c(-c3cccc(C(F)(F)F)c3)cnc12 | > 64.6 µM (inactive)
COc1cc(NS(=O)(=O)c2ccc(NC(=S)NC(=O)c3sc4ccccc4c3Cl)cc2)ncn1 | > 92.4 µM (inactive)
Cc1cc(NC(=O)c2cncc(Br)c2)ccc1NC(=O)c1cc2ccccc2o1 | > 64.6 µM (inactive)
C/C(=N\NC(=O)COc1cccc2ccccc12)c1cccs1 | > 64.6 µM (inactive)
CC(=O)Nc1cc(-c2ccc(N(C)C)cc2)cn2c(-c3ccc(F)c(Cl)c3)cnc12 | > 92.5 µM (inactive)
CC1=NNC(=O)/C1=C\c1cn(-c2ccccc2)nc1-c1ccc(Cl)cc1 | > 92.5 µM (inactive)
Cc1ccccc1-c1nc(-c2ccc(NC(=O)c3ccc(Br)o3)cc2)no1 | > 92.5 µM (inactive)
Cc1cc(C)c(CN2CCN(CCCn3cnc(C(=O)Nc4ccc(C)c(C)c4)n3)CC2)c(C)c1 | > 92.5 µM (inactive)
COc1ccc(C(NC(=O)C2CCN(CCOc3ccc(Cl)cc3Cl)CC2)c2ccccc2C)cn1 (stereo not given) | > 64.6 µM (inactive)
Cc1ccc(NC(=S)NC(=O)c2ccc(-c3ccc(Cl)cc3)o2)c(O)c1 | > 64.6 µM (inactive)
CC(=O)Nc1cc(-c2ccc(C(=O)N3CCOCC3)cc2)cn2c(-c3ccccc3)cnc12 | > 92.5 µM (inactive)
COc1ccc(-c2oc3ccc(-c4ccc5c(c4)OCO5)cc3c2C#CC2(O)CCCCC2)cc1 | > 64.6 µM (inactive)
COc1ccc(-n2nc(C(=O)NCC(=O)Nc3ccccn3)c3ccccc3c2=O)cc1Cl | > 64.6 µM (inactive)
CCCCCCCCCCCCCCCC[N+](C)(C)Cc1ccc(F)cc1 | > 92.5 µM (inactive)
COc1ccc(-c2cnc3c(NC(C)=O)cc(-c4cc(F)ccc4OC)cn23)cc1OC | > 64.6 µM (inactive)
CC12CCC3C(CC=C4CC(O)CCC43C)C1C/C(=C\c1ccccc1F)C2=O (stereo not given) | inactive

Compound | EC50
CCOC(=O)C(=CNc1ccc2c(c1)nnn2-c1ccc(Cl)cc1)C(=O)OCC | > 64.6 µM (inactive)
Cc1cc(N2CCN(C(=O)c3ccco3)CC2)n2nc(-c3cccc(Cl)c3)cc2n1 | > 64.6 µM (inactive)
COc1cccc(-c2cnc3c(NC(C)=O)cc(-c4ccc(C(=O)N5CCOCC5)cc4)cn23)c1 | > 64.6 µM (inactive)
NC(Cc1ccc(Cl)cc1)c1csc(Nc2ccc(-c3ccccc3)nn2)n1 (stereo not given) | > 92.4 µM (inactive)
Cc1ccccc1-c1nc(-c2ccc(NC(=O)c3ccc4c(c3)OCO4)cc2)no1 | > 92.4 µM (inactive)
CCCCCCCNC(=O)C1(CC2CC(c3ccc(Cl)cc3)=NO2)CCNCC1 (stereo not given) | > 64.6 µM (inactive)
Cc1ccc(NC(=O)c2ncn(CCCN3CCN(Cc4cccc5ccccc45)CC3)n2)cc1C | > 92.5 µM (inactive)
CC(=O)c1cccc(-c2cnc3c(NC=O)cc(-c4ccc(N(C)C)cc4)cn23)c1 | > 64.6 µM (inactive)
COc1cc2nc(Nc3ccc(C)c(Cl)c3)nc(N)c2cc1OC | > 92.5 µM (inactive)
O=C(COc1ccc2c(c1)OCO2)Nc1ccc2c(c1)oc1ccccc12 | > 92.5 µM (inactive)
COc1ccc2c(c1)CCc1c(C(=O)Nc3ccn(Cc4ccc(C)cc4)n3)noc1-2 | > 92.4 µM (inactive)
COc1cccc(-c2cnc3c(NC=O)cc(-c4cccc(C(=O)N(C)C)c4)cn23)c1 | > 64.6 µM (inactive)
CC(=O)Nc1cc(-c2cccnc2)cn2c(-c3ccc(F)cc3)cnc12 | > 64.6 µM (inactive)
CCOc1ccc(Cn2c3ccc(OC)cc3c3nc4ccccc4nc32)cc1OC | > 64.6 µM (inactive)
Cc1cc(C)c2nc(Nc3nc(-c4ccccc4)cc(=O)[nH]3)nc(C)c2c1 | > 92.5 µM (inactive)
COc1ccc(-c2cc(NC(C)=O)c3ncc(-c4ccc(F)cc4)n3c2)cc1OC | > 64.6 µM (inactive)
Cc1ccc(C(=O)Nc2nc(C(N)Cc3ccc(C(F)(F)F)cc3)cs2)cc1 (stereo not given) | > 64.6 µM (inactive)

Source: PubChem BioAssay AID602264 (The Scripps Research Institute Molecular Screening Center, 2012)
